Test results published in US4228174A, “Clavulanic acid ethers” (priority 1975, dated 1980).
Counter-ions that a name gives are not always drawn.

Assays:
[1] = test system: Klebsiella I.112 infection; test: CD50 of amoxycillin alone and with synergist, oral dosing at 1, 3 and 5 hours; type: in vivo; details: (×3) mice, oral at 1, 3 and 5 hours post infection
Experimental: f. CD50 values of amoxycillin alone and together with a salt of O-methylclavulanic acid or O-ethylclavulanic acid against a Klebsiella I.112 infection. The test compounds were administered orally to mice at 1, 3 and 5 hours post inter peritoneal infection.
[In these tests amoxycillin trihydrate equivalent to the stated weights of amoxycillin were used].

[2] = test system: Staphylococcus aureus Russell; test: Standard MIC test of ampicillin in the presence of compounds of the invention; type: cell-based; details: ampicillin alone, read-out: Concentration of ampicillin in the absence of synergist that did not inhibit growth
Experimental: b. When tested in standard MIC tests in combination with ampicillin the compounds of this invention are seen to enhance the effectiveness of the penicillin against various gram-positive and gram-negative organisms such as strains of Staphylococcus aureus Russell, Klebsiella aerogenes, Proteus mirabilis and Escherichia coli: for example the following MIC values against Staphylococcus aureus Russell were obtained for ampicillin in the presence of 1 μg/ml of certain compounds of the invention:
None of the synergists inhibited the growth of the test organism at 5 μg/ml.

E. coli JT 39 = test: MIC of ampicillin alone and together with sodium O-methylclavulanate; type: cell-based; details: Escherichia coli, JT39, 0 μg/ml of sodium O-methylclavulanate
Source text: (§1) c. MIC values of ampicillin alone and together with sodium O-methylclavulanate against 3 strains of Straphylococcus aureus and 3 strains of R^+ E. coli

E. coli JT 68 = test: as above; type: cell-based; details: Escherichia coli, JT68, 0 μg/ml of sodium O-methylclavulanate
Source text: as §1

E. coli JT 98 = test: as above; type: cell-based; details: Escherichia coli, JT98, 0 μg/ml of sodium O-methylclavulanate
Source text: as §1

Staph. H = test: as above; type: cell-based; details: Staphylococcus aureus, 0 μg/ml of sodium O-methylclavulanate
Source text: as §1

Staph. M B9 = test: as above; type: cell-based; details: Staphylococcus aureus, 0 μg/ml of sodium O-methylclavulanate
Source text: as §1

Staph. Russell = test: as above; type: cell-based; details: Staphylococcus aureus, 0 μg/ml of sodium O-methylclavulanate
Source text: as §1

[3] = target: T1, Escherichia coli JT4 β-lactamase (Escherichia coli, UniProt P62593); test: β-lactamase inhibition I50; type: biochemical
T1 construct: host or cells: Escherichia coli JT4

[4] = target: Klebsiella aerogenes E70 β-lactamase; test: β-lactamase inhibition I50; type: biochemical
[5] = target: T2, Staphylococcus aureus Russell β-lactamase (Staphylococcus aureus, UniProt P00807); test: β-lactamase inhibition I50; type: biochemical
T2 construct: host or cells: Staphylococcus aureus Russell

[6] = target: T3, Escherichia coli JT410 β-lactamase (Escherichia coli, UniProt P00811); test: β-lactamase inhibition I50; type: biochemical
T3 construct: host or cells: Escherichia coli JT410

P. moig, Cr. β-lactamase = test: β-lactamase inhibition I50; type: biochemical
[7] = target: Pseudomonas aeruginosa β-lactamase; test: β-lactamase inhibition I50; type: biochemical
[8] = target: Proteus mirabilis C889 β-lactamase; test: β-lactamase inhibition I50; type: biochemical
[9] = target: T4, Pseudomonas dalgleish β-lactamase (Pseudomonas aeruginosa, UniProt P16897); test: β-lactamase inhibition I50; type: biochemical
T4 construct: host or cells: Pseudomonas aeruginosa Dalgleish

[10] = Blood levels in mice after sub-cutaneous administration; type: in vivo; details: mouse, sc, 50 mg/kg, read-out: Blood level, mean result for 5 mice; for concentration at 0.5 h: 30 min; for concentration at 0.75 h: 45 min; for concentration at 1 h: 60 min; for concentration at 1.5 h: 90 min
Experimental: a. Blood levels in mice after sub-cutaneous administration of 50 mg/kg of a solution of sodium O-methylclavulanate

[11] = Blood levels in mice after oral administration; type: in vivo; details: mouse, 20 mg/kg, read-out: Blood level
Experimental: b. Blood levels in mice after oral administration of 20 mg/kg of sodium O-methylclavulanate

[12] = test system: 3 strains of Straphylococcus aureus and 3 strains of R+ E. coli; test: MIC of sodium O-methylclavulanate alone against each test organism; type: cell-based, Staphylococcus aureus; E. coli; details: read-out: MIC of sodium O-methylclavulanate against each test organism
Experimental: as §1
The MIC of sodium O-methylclavulanate against each test organism was in the range 20-40 μg/ml.

[13] = Toxicity in mice, sub-cutaneous administration (LD50); details: mouse, in vivo, sc
[14] = test system: E. coli JT 39 (R+) infection; test: CD50 with sodium O-methylclavulanate or sodium clavulanate as synergist, dosing at 1 and 5 hours; type: in vivo; details: (×2) sub-cutaneous at 1 and 5 hours post infection
Experimental: d. […]
The test compounds were administered sub-cutaneously in freshly prepared buffered saline at 1 hour and 5 hours post intra peritoneal infection: […]

[15] = test system: E. coli JT 39 (R+) infection; test: CD50 of amoxycillin with a salt of O-ethylclavulanic acid or clavulanic acid, dosing at 1 and 5 hours; type: in vivo; details: (×2) mice, sub-cutaneous at 1 and 5 hours
Experimental: (§2) e. CD50 values of amoxycillin alone and together with a salt of O-ethylclavulanate acid against an E. coli JT 39 (R^+) infection. The test compounds were administered to mice sub-cutaneously in freshly prepared buffered saline (0.4 mg/ml) at 1 hour and 5 hours post inter peritoneal infection.

[16] = test system: E. coli JT 39 (R+) infection; test: CD50 of amoxycillin with a salt of O-ethylclavulanic acid or clavulanic acid, similar test dosing at 1, 3 and 5 hours; type: in vivo; details: (×3) dosing at 1, 3 and 5 hours post infection
Experimental: as §2
In a similar test dosing at 1, 3 and 5 hours post infection the following results were obtained: […]

[17] = Blood level in test mammals; type: in vivo; details: compared with an equivalent amount of the salt of clavulanic acid
[18] = columns Synergist = Salt of clavulanic acid

T1 sequence (P62593 24-286 limits assumed): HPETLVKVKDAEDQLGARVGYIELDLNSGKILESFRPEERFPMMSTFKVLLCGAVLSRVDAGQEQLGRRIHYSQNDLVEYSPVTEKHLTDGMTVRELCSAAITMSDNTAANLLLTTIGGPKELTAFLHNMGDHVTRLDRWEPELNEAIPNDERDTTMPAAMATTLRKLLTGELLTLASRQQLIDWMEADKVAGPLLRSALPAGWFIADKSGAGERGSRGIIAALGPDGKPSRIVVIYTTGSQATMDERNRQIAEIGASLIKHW
T2 sequence (P00807 25-281): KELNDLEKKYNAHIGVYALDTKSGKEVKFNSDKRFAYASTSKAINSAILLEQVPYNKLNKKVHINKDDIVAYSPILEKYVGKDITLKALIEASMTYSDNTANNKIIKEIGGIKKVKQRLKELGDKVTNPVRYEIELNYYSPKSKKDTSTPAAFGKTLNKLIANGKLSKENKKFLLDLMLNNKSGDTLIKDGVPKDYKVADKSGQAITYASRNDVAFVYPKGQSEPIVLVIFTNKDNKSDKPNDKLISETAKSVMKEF
T4 sequence (P16897 18-288): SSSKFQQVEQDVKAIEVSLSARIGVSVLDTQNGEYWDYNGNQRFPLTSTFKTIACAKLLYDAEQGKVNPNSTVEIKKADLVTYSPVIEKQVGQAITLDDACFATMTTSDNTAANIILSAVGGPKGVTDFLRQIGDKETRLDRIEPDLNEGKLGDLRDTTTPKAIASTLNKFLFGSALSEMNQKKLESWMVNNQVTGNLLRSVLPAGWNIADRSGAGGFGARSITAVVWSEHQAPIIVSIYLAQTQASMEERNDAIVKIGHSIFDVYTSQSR
T3 sequence (P00811 20-377): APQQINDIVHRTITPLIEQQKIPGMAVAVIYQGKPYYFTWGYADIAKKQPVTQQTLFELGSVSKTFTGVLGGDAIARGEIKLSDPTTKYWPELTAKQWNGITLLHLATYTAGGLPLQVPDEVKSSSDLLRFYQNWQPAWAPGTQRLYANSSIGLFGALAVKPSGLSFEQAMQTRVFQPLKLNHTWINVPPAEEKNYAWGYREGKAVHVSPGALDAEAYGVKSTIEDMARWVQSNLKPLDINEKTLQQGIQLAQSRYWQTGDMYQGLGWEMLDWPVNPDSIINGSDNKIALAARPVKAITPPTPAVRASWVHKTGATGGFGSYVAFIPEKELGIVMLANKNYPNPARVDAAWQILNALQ

In the case of `CC1(C)S[C@@H]2[C@H](NC(=O)[C@H](N)c3ccc(O)cc3)C(=O)N2[C@H]1C(=O)O` [Amoxycillin], the ED50 [1] is reported as over 1000 mg/kg.
In the case of `CC1(C)S[C@@H]2[C@H](NC(=O)[C@H](N)c3ccccc3)C(=O)N2[C@H]1C(=O)O` [Ampicillin, ampicillin], the MIC [2] is reported as over 250 µg/mL, the MIC (E. coli JT 39) is reported as over 2560 µg/mL and the MIC (E. coli JT 68) is reported as 2560 µg/mL. It also gave an MIC (E. coli JT 98) of 1280 µg/mL, an MIC (Staph. H) of 640 µg/mL and an MIC (Staph. M B9) of 640 µg/mL. It also gave an MIC (Staph. Russell) of 80 µg/mL.
For `COC/C=C1\O[C@@H]2CC(=O)N2[C@H]1C(=O)OC` [Example 1, Methyl 9--O--methylclavulanate], the IC50 [3] was 3.96 µM, the “β-lactamase inhibition I50, Klebsiella aerogenes E70” value [4] was 0.25 µg/mL and the IC50 [5] was 2.2 µM. The IC50 [6] was 13.6 µM, the “β-lactamase inhibition I50, P. moig, Cr.” value (P. moig, Cr. β-lactamase) was 0.68 µg/mL and the “β-lactamase inhibition I50, Pseudomonas aeruginosa” value [7] was 1.9 µg/mL.
For `COC/C=C1\O[C@@H]2CC(=O)N2[C@H]1C(=O)OCc1ccccc1` [Example 2, Benzyl 9-O-methylclavulanate], the IC50 [3] was 0.33 µM, the “β-lactamase inhibition I50, Klebsiella aerogenes E70” value [4] was 0.05 µg/mL and the IC50 [5] was 0.165 µM. The “β-lactamase inhibition I50, Pseudomonas aeruginosa” value [7] was 1.4 µg/mL, the “β-lactamase inhibition I50, Proteus mirabilis C889” value [8] was under 0.07 µg/mL and the IC50 [9] was under 0.231 µM.
In the case of `COC/C=C1\O[C@@H]2CC(=O)N2[C@H]1C(=O)O` [Example 3, Sodium 9-O-methylclavulanate], the IC50 [3] is reported as 0.844 µM, the “β-lactamase inhibition I50, Klebsiella aerogenes E70” value [4] is reported as 0.07 µg/mL and the IC50 [5] is reported as 0.235 µM. The “β-lactamase inhibition I50, Proteus mirabilis C889” value [8] was 0.01 µg/mL, the concentration at 10 min [10] was 14500 ng/mL and the concentration at 20 min [10] was 12800 ng/mL. The concentration at 0.5 h [10] was 7900 ng/mL, the concentration at 0.75 h [10] was 4100 ng/mL and the concentration at 1 h [10] was 1400 ng/mL. The concentration at 1.5 h [10] was 480 ng/mL, the concentration at 0.25 h ([11]; 15 min) was 5200 ng/mL and the concentration at 0.5 h ([11]; 30 min) was 3400 ng/mL. It also gave a concentration at 0.75 h ([11]; 45 min) of 2200 ng/mL, a concentration at 1 h ([11]; 60 min) of 1200 ng/mL and a concentration at 1.5 h ([11]; 90 min) of 500 ng/mL. For the same compound, the MIC [12] was 20 to 40 µg/mL.
For `COC(=O)[C@H]1/C(=C/COCc2ccccc2)O[C@@H]2CC(=O)N21` [Example 4, Methyl 9-O-benzylclavulanate], the IC50 [3] was 2.64 µM, the “β-lactamase inhibition I50, Klebsiella aerogenes E70” value [4] was 0.8 µg/mL and the IC50 [5] was 0.0165 µM.
For `O=C(O)[C@H]1/C(=C/COCc2ccccc2)O[C@@H]2CC(=O)N21` [Example 5, Sodium 9-O-benzylclavulanate], the IC50 [3] was 0.346 µM, the “β-lactamase inhibition I50, Klebsiella aerogenes E70” value [4] was 0.04 µg/mL and the IC50 [5] was 0.0173 µM. The “β-lactamase inhibition I50, Proteus mirabilis C889” value [8] was 0.02 µg/mL, the IC50 [9] was 0.0277 µM and the LD50 [13] was over 250 mg/kg.
For `CCOC(=O)COC/C=C1\O[C@@H]2CC(=O)N2[C@H]1C(=O)OCc1ccccc1` [Example 6, Benzyl 9-O-ethoxycarbonylmethylclavulanate], the IC50 [3] was 0.373 µM, the “β-lactamase inhibition I50, Klebsiella aerogenes E70” value [4] was 0.30 µg/mL and the IC50 [5] was 0.32 µM. The “β-lactamase inhibition I50, Proteus mirabilis C889” value [8] was 1.0 µg/mL.
In the case of `CCOC(=O)COC/C=C1\O[C@@H]2CC(=O)N2[C@H]1C(=O)O` [Example 7, Sodium 9-O-ethoxycarbonylmethylclavulanate], the IC50 [3] is reported as 0.561 µM, the “β-lactamase inhibition I50, Klebsiella aerogenes E70” value [4] is reported as 0.034 µg/mL and the IC50 [5] is reported as 0.154 µM. For the same compound, the “β-lactamase inhibition I50, Proteus mirabilis C889” value [8] was 0.025 µg/mL.
Work on `N#CCOC/C=C1\O[C@@H]2CC(=O)N2[C@H]1C(=O)O` [Example 12, Sodium 9-O-cyanomethylclavulanate] yielded an LD50 [13] of over 250 mg/kg.
For `CC1(C)S[C@@H]2[C@H](NC(=O)[C@H](N)c3ccc(O)cc3)C(=O)N2[C@H]1C(=O)O` [Sodium Amoxycillin], the “CD50 of Sodium Amoxycillin alone” value ([14]; columns Synergist = Sodium clavulanate) was over 1000 mg/kg, the ED50 ([14]; Escherichia coli, sc, columns Synergist = Sodium O-methylclavulanate, read-out: CD50 of Sodium Amoxycillin alone) was over 1000 mg/kg and the “CD50 of Sodium Amoxycillin alone” value [15, 18] was over 1000 mg/kg. For the same compound, the ED50 ([15]; Escherichia coli, sc, columns Synergist = Salt of O-ethylclavulanic acid, read-out: CD50 of Sodium Amoxycillin alone) was over 1000 mg/kg, the “CD50 of Sodium Amoxycillin alone” value [16, 18] was over 1000 mg/kg and the ED50 ([16]; Escherichia coli, in Mus musculus, sc, columns Synergist = Salt of O-ethylclavulanic acid, read-out: CD50 of Sodium Amoxycillin alone) was over 1000 mg/kg.
`O=C(O)[C@H]1/C(=C/CO)O[C@@H]2CC(=O)N21` [Sodium clavulanate, reference compound] gave a concentration at 10 min [10] of 9300 ng/mL, a concentration at 20 min [10] of 8700 ng/mL and a concentration at 0.5 h [10] of 2990 ng/mL. For the same compound, the concentration at 0.75 h [10] was 1950 ng/mL, the concentration at 1 h [10] was 500 ng/mL and the concentration at 1.5 h [10] was 90 ng/mL.
In the case of `COC/C=C1\O[C@@H]2CC(=O)N2[C@H]1C(=O)O` [salt of O-methylclavulanic acid], the “Blood level after administration, in words” value [17] is reported as “more prolonged blood level”.
